Source: PubChem BioAssay AID194 (DTP/NCI, 2004)
Several values for one entry are separate records, joined by “and”; a condition that tells them apart may be missing. Equal values may be shown once. Results filed as inconclusive are left out.

Tested on: BDF1 mice, B16 melanoma s.c., survival/tumor T/C
Assay: NCI In Vivo Anticancer Drug Screen. Data for tumor model B16 Melanoma (subcutaneous) in B6D2F1 (BDF1) mice
Protocol: The antitumor activity of compounds was measured in mice bearing transplantable tumors. Survival or tumor size were measured and the results are expressed as the measurement made in the treated group (T) divided by the measurement made in the vehicle treated control group (C). The tumor model used in this assay is B16 Melanoma (subcutaneous) in B6D2F1 (BDF1) mice

[1] = endpoint: median survival time, dose: 2.0 mg/kg/injection, schedule: Q01DX009 (ip), vehicle: Klucel (hydroxypropylcellulose) (HPC), higher = longer survival
[2] = endpoint: median survival time, dose: 4.0 mg/kg/injection, schedule: Q01DX009 (ip), vehicle: Klucel (hydroxypropylcellulose) (HPC), higher = longer survival
[3] = endpoint: median survival time, dose: 8.0 mg/kg/injection, schedule: Q01DX009 (ip), vehicle: Klucel (hydroxypropylcellulose) (HPC), higher = longer survival
[4] = endpoint: median survival time, dose: 16.0 mg/kg/injection, schedule: Q01DX009 (ip), vehicle: Klucel (hydroxypropylcellulose) (HPC), higher = longer survival
[5] = endpoint: median survival time, dose: 1.0 mg/kg/injection, schedule: Q01DX009 (ip), vehicle: saline, higher = longer survival
[6] = endpoint: median survival time, dose: 2.0 mg/kg/injection, schedule: Q01DX009 (ip), vehicle: saline, higher = longer survival
[7] = endpoint: median survival time, dose: 4.0 mg/kg/injection, schedule: Q01DX009 (ip), vehicle: saline, higher = longer survival
[8] = endpoint: median survival time, dose: 100.0 mg/kg/injection, schedule: Q01DX009 (ip), vehicle: saline with Tween-80, higher = longer survival
[9] = endpoint: median survival time, dose: 200.0 mg/kg/injection, schedule: Q01DX009 (ip), vehicle: saline with Tween-80, higher = longer survival
[10] = endpoint: median survival time, dose: 200.0 mg/kg/injection, schedule: Q04DX003 (ip), vehicle: saline, higher = longer survival

CC1(C)N=C(N)N=C(N)N1c1ccc(CCC(=O)Nc2ccc(S(=O)(=O)F)cc2)c(Cl)c1
T/C (endpoint: median survival time, dose: 6.25 mg/kg/injection, schedule: Q01DX009 (ip), vehicle: saline, higher = longer survival): 108 % of control
T/C (endpoint: median survival time, dose: 12.5 mg/kg/injection, schedule: Q01DX009 (ip), vehicle: saline, higher = longer survival): 103 % of control
T/C (endpoint: median survival time, dose: 25.0 mg/kg/injection, schedule: Q01DX009 (ip), vehicle: saline, higher = longer survival): 114 % of control

FC(F)c1nc2nc(Cl)c(Cl)nc2[nH]1
T/C [1]: 106 % of control
T/C [2]: 114 % of control
T/C [3]: 97 % of control
T/C (endpoint: median survival time, dose: 8.0 mg/kg/injection, schedule: Q01DX009 (ip), vehicle: other, higher = longer survival): 157 % of control
T/C [4]: 102 % of control
T/C (endpoint: median survival time, dose: 16.0 mg/kg/injection, schedule: Q01DX009 (ip), vehicle: other, higher = longer survival): 117 % of control
T/C (endpoint: median survival time, dose: 32.0 mg/kg/injection, schedule: Q01DX009 (ip), vehicle: Klucel (hydroxypropylcellulose) (HPC), higher = longer survival): 121 % of control
T/C (endpoint: median survival time, dose: 32.0 mg/kg/injection, schedule: Q01DX009 (ip), vehicle: other, higher = longer survival): 89 % of control

Cn1ncc2c(N)ncnc21
T/C [1]: 104 % of control
T/C [2]: 106 % of control
T/C [3]: 115 % of control

OCCN1CCN(CC/C=C2/c3ccccc3Sc3ccc(C(F)(F)F)cc32)CC1
T/C (endpoint: median survival time, dose: 1.8 micrograms/kg/injection, schedule: Q01DX009 (ip), vehicle: saline, higher = longer survival): 93 % of control
T/C (endpoint: median survival time, dose: 3.7 micrograms/kg/injection, schedule: Q01DX009 (ip), vehicle: saline, higher = longer survival): 95 % of control
T/C (endpoint: median survival time, dose: 7.5 micrograms/kg/injection, schedule: Q01DX009 (ip), vehicle: saline, higher = longer survival): 109 % of control
T/C (endpoint: median survival time, dose: 15.0 micrograms/kg/injection, schedule: Q01DX009 (ip), vehicle: saline, higher = longer survival): 103 % of control
T/C (endpoint: median survival time, dose: 30.0 micrograms/kg/injection, schedule: Q01DX009 (ip), vehicle: saline, higher = longer survival): 91 % of control

CC1=C(/C=C/C(C)=C/C=C/C(C)=C/C(=O)O)C(C)(C)CCC1
T/C (endpoint: median survival time, dose: 4.0 mg/kg/injection, schedule: Q01DX009 (ip), vehicle: saline with Tween-80, higher = longer survival): 88 % of control

ClC1=NC(Cl)C(Cl)=N/C1=N\c1ncn[nH]1 (stereo not given)
T/C [2]: 106 % of control
T/C (endpoint: median survival time, dose: 4.0 mg/kg/injection, schedule: Q01DX009 (ip), vehicle: water, higher = longer survival): 89 % of control
T/C [3]: 113 % of control
T/C [4]: 101 % of control
T/C (endpoint: median survival time, dose: 16.0 mg/kg/injection, schedule: Q01DX009 (ip), vehicle: water, higher = longer survival): 170 % of control
T/C (endpoint: median survival time, dose: 32.0 mg/kg/injection, schedule: Q01DX009 (ip), vehicle: water, higher = longer survival): 121 % of control

Cc1c(N)nc(C(CC(N)=O)NCC(N)C(N)=O)nc1C(=O)NC(C(=O)NC(C)C(O)CC(=O)NC(C(=O)NC(OC1OC(C)C(N)C(O)C1O)C(O)c1nc(-c2nc(C(=O)NCCCC(N)CC(=O)NCCCNCCCCN)cs2)cs1)C(C)O)C(OC1OC(CO)C(O)C(O)C1OC1OC(CO)C(O)C(OC(N)=O)C1O)c1cnc[nH]1 (stereo not given)
T/C [5]: 173 % of control
T/C [6]: 174 % of control
T/C [7]: 160 % of control

NC(CS/C(Cl)=C/Cl)C(=O)O (stereo not given)
T/C (endpoint: median survival time, dose: 1.25 mg/kg/injection, schedule: Q01DX009 (ip), vehicle: saline, higher = longer survival): 102 % of control
T/C (endpoint: median survival time, dose: 2.5 mg/kg/injection, schedule: Q01DX009 (ip), vehicle: saline, higher = longer survival): 95 % of control
T/C (endpoint: median survival time, dose: 5.0 mg/kg/injection, schedule: Q01DX009 (ip), vehicle: saline, higher = longer survival): 97 % of control and 106 % of control
T/C (endpoint: median survival time, dose: 18.0 mg/kg/injection, schedule: Q01DX009 (ip), vehicle: saline, higher = longer survival): 101 % of control

N[C@@H](Cc1ccc(N(CCCl)CCCl)cc1)C(=O)O
T/C [5]: 93 % of control
T/C [6]: 150 % of control
T/C [7]: 123 % of control
T/C (endpoint: median tumor weight (est.), dose: 1.25 mg/kg/injection, schedule: Q01DX009 (ip), vehicle: Klucel (hydroxypropylcellulose) (HPC), higher = larger tumour): 63 % of control
T/C (endpoint: median tumor weight (est.), dose: 2.5 mg/kg/injection, schedule: Q01DX009 (ip), vehicle: Klucel (hydroxypropylcellulose) (HPC), higher = larger tumour): 44 % of control
T/C (endpoint: median tumor weight (est.), dose: 5.0 mg/kg/injection, schedule: Q01DX009 (ip), vehicle: Klucel (hydroxypropylcellulose) (HPC), higher = larger tumour): 18 % of control

O=c1[nH]c(=O)n(C2CC(O)C(CO)O2)cc1F (stereo not given)
T/C (endpoint: median survival time, dose: 25.0 mg/kg/injection, schedule: Q01DX009 (ip), vehicle: saline with Tween-80, higher = longer survival): 109 % of control
T/C [8]: 122 % of control
T/C [9]: 120 % of control
T/C [10]: 112 % of control
T/C (endpoint: median tumor weight (est.), dose: 25.0 mg/kg/injection, schedule: Q01DX009 (ip), vehicle: saline with Tween-80, higher = larger tumour): 68 % of control
T/C (endpoint: median tumor weight (est.), dose: 50.0 mg/kg/injection, schedule: Q01DX009 (ip), vehicle: saline with Tween-80, higher = larger tumour): 59 % of control
T/C (endpoint: median tumor weight (est.), dose: 50.0 mg/kg/injection, schedule: Q01DX009 (ip), vehicle: saline, higher = larger tumour): 96 % of control and 220 % of control
T/C (endpoint: median tumor weight (est.), dose: 100.0 mg/kg/injection, schedule: Q01DX009 (ip), vehicle: saline with Tween-80, higher = larger tumour): 41 % of control
T/C (endpoint: median tumor weight (est.), dose: 100.0 mg/kg/injection, schedule: Q01DX009 (ip), vehicle: saline, higher = larger tumour): 49 % of control and 71 % of control
T/C (endpoint: median tumor weight (est.), dose: 200.0 mg/kg/injection, schedule: Q01DX009 (ip), vehicle: saline, higher = larger tumour): 55 % of control

CC(C)[C@](O)(C(=O)OCC1=CC[N+]2([O-])CC[C@@H](O)[C@@H]12)[C@H](C)O (stereo not given in full)
T/C (endpoint: median survival time, dose: 50.0 mg/kg/injection, schedule: Q01DX009 (ip), vehicle: water, higher = longer survival): 95 % of control
T/C (endpoint: median survival time, dose: 100.0 mg/kg/injection, schedule: Q01DX009 (ip), vehicle: water, higher = longer survival): 106 % of control
T/C (endpoint: median survival time, dose: 200.0 mg/kg/injection, schedule: Q01DX009 (ip), vehicle: water, higher = longer survival): 103 % of control

CCN1C=C/C(=C/c2cc3scc(-c4ccccc4)[n+]3c3ccccc23)c2ccccc21
T/C (endpoint: median survival time, dose: 0.15 mg/kg/injection, schedule: Q01DX009 (ip), vehicle: Klucel (hydroxypropylcellulose) (HPC), higher = longer survival): 107 % of control

CC(CN1CC(=O)NC(=O)C1)N1CC(=O)NC(=O)C1 (stereo not given)
T/C (endpoint: median survival time, dose: 6.25 mg/kg/injection, schedule: Q04DX003 (ip), vehicle: saline, higher = longer survival): 97 % of control
T/C [3]: 113 % of control
T/C (endpoint: median survival time, dose: 12.5 mg/kg/injection, schedule: Q04DX003 (ip), vehicle: saline, higher = longer survival): 97 % of control
T/C (endpoint: median survival time, dose: 15.0 mg/kg/injection, schedule: Q01DX009 (ip), vehicle: saline, higher = longer survival): 122 % of control
T/C [4]: 118 % of control
T/C (endpoint: median survival time, dose: 25.0 mg/kg/injection, schedule: Q04DX003 (ip), vehicle: saline, higher = longer survival): 102 % of control
T/C (endpoint: median survival time, dose: 30.0 mg/kg/injection, schedule: Q01DX009 (ip), vehicle: saline, higher = longer survival): 95 % of control
T/C (endpoint: median survival time, dose: 50.0 mg/kg/injection, schedule: Q04DX003 (ip), vehicle: saline, higher = longer survival): 111 % of control
T/C (endpoint: median survival time, dose: 60.0 mg/kg/injection, schedule: Q01DX009 (ip), vehicle: saline, higher = longer survival): 110 % of control
T/C (endpoint: median survival time, dose: 64.0 mg/kg/injection, schedule: Q01DX009 (ip), vehicle: Klucel (hydroxypropylcellulose) (HPC), higher = longer survival): 119 % of control
T/C (endpoint: median survival time, dose: 120.0 mg/kg/injection, schedule: Q01DX009 (ip), vehicle: saline, higher = longer survival): 109 % of control
T/C [10]: 105 % of control
T/C (endpoint: median survival time, dose: 400.0 mg/kg/injection, schedule: Q04DX003 (ip), vehicle: saline, higher = longer survival): 120 % of control

O=P(OCC(Br)CBr)(OCC(Br)CBr)OCC(Br)CBr (stereo not given)
T/C (endpoint: median survival time, dose: 50.0 mg/kg/injection, schedule: Q01DX009 (ip), vehicle: saline with Tween-80, higher = longer survival): 110 % of control
T/C [8]: 114 % of control
T/C [9]: 98 % of control
T/C (endpoint: median survival time, dose: 400.0 mg/kg/injection, schedule: Q01DX009 (ip), vehicle: saline with Tween-80, higher = longer survival): 105 % of control

CC1(C)N=C(N)N=C(N)N1c1ccc(OCC(=O)N2CCOCC2)c(Cl)c1
T/C (endpoint: median survival time, dose: 50.0 mg/kg/injection, schedule: Q01DX009 (ip), vehicle: saline, higher = longer survival): 103 % of control
T/C (endpoint: median survival time, dose: 100.0 mg/kg/injection, schedule: Q01DX009 (ip), vehicle: saline, higher = longer survival): 114 % of control

CC(=O)Oc1ccccc1C(=O)O
T/C (endpoint: median survival time, dose: 32.0 mg/kg/injection, schedule: Q01DX009 (ip), vehicle: saline, higher = longer survival): 95 % of control
T/C (endpoint: median survival time, dose: 64.0 mg/kg/injection, schedule: Q01DX009 (ip), vehicle: saline, higher = longer survival): 88 % of control
T/C (endpoint: median survival time, dose: 256.0 mg/kg/injection, schedule: Q01DX009 (ip), vehicle: saline, higher = longer survival): 116 % of control
